This note sets out measurements from publication PMC5577450, “An ancient FMRFamide-related peptide–receptor pair induces defence behaviour in a brachiopod larva” (Open Biology, 2017).

The test system of experiment [1] is Terebratalia transversa larvae. As to the kind of experiment: Behavioural assay: full contraction / defence stance of larvae exposed to synthetic peptides. The format is in vivo. To be noted: for contraction reaction of larvae (in words): at 50 µmol l^−1 (maximum concentration cutoff); for necessary concentration to induce defense stance (full contraction): > 50 stands for 'no contraction at 50 µM'. How it is done: The reaction of larvae to synthetic peptides (GenScript) that were predicted from the prepropeptide sequence were tested and compared with the reactions to peptides with non-native modifications. Freely swimming larvae were exposed to different concentrations of peptides in 4-well and 6-well plates (1 ml and 5 ml total volume per well, respectively), and their reactions were observed under a stereomicroscope. To determine the efficiency of the native and modified peptides, the larvae were tested for the necessary minimum concentration at which they fully contracted and spread their chaetae, using 30–100 larvae in each test. To get an estimation of the peptide concentration that was necessary to induce a complete contraction, the larvae were initially exposed to 50 nmol l^−1 of the respective peptide and the concentration was then increased stepwise until the larvae fully contracted or a concentration of 50 µmol l^−1 was reached as an upper cutoff. […] To test the influence of the peptides on the vertical distribution of larvae in a water column, freely swimming larvae (50–100 per treatment) were exposed to peptides in transparent 4.5 ml cuvettes. About 60 s after addition of the peptides, the larvae were recorded with a digital camera (DMK 31AU03 camera, The Imaging Source) in a darkened box with artificial top-illumination. All experiments were repeated at least once with a different batch of larvae from another fertilization and the outcome was averaged. Control animals were exposed to DMSO only.

Experiment [2] deals with T. transversa FLRFamide receptor. Description: Receptor deorphanization: luminescence response of transfected CHO-K1 cells. The format is cell-based, Terebratalia transversa. To be noted: fixed peptide concentration 1 µmol l^−1 (figure 4a). The source says:
For the receptor deorphanization, the procedure was used as described by Bauknecht & Jékely: full-length open reading frames of the receptor candidate sequences were amplified by PCR from cDNA of mixed larval stages. The forward primers included a 5′ attachment consisting of a spacer, an EcoR1 or BamH1 restriction site and a Kozak sequence and the reverse primers included a 5′ attachment consisting of a spacer and a Not1 restriction site (see the electronic supplementary material for primer sequences). […] The luminescence response of the transfected cells was measured in a plate reader (BioTek Synergy Mx or Synergy H4, BioTek, Winooski, USA) over 45 s after addition of the neuropeptides. […] Dose–response curves were calculated using PRISM 6 (GraphPad, La Jolla, USA) and normalized against the upper plateau values (100% activation).
Figure 4. Luminescence response of T. transversa FLRFamide receptor expressing CHO-K1 cells to different peptides. (a) Relative luminescence of T. transversa FLRFamide receptor expressing cells after exposure to different peptides with a fixed concentration of 1 µmol l^−1. […] Luminescence values are given relative to maximum luminescence (max = 1). RLU relative luminescence.

Experiment [3] concerns late chaetous larvae of P. dumerilii. As to the kind of experiment: Behavioural test of the orthologue peptide for a defence reaction. Conditions: no defence reaction even above this concentration. The format is in vivo, Platynereis dumerilii.
For experiment [4], the system named is late chaetous larvae of Novocrania anomala. The experiment is described as above. The format is in vivo. Conditions: no defence reaction even above this concentration.

Chain of T. transversa FLRFamide receptor (as listed by the source): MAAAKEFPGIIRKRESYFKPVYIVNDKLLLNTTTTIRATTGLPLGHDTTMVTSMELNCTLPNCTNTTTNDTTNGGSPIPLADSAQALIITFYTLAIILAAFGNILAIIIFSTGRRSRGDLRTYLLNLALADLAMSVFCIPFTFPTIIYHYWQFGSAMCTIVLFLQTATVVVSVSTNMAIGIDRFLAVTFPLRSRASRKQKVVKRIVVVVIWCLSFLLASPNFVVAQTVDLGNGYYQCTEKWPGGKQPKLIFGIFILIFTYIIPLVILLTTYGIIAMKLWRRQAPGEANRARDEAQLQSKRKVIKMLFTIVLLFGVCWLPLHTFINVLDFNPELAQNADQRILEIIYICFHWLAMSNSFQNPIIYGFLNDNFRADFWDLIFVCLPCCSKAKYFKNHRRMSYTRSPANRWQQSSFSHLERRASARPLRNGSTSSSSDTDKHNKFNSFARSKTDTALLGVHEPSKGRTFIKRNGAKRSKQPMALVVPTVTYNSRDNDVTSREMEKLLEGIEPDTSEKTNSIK

“AFLRLamide [modified AFLRFamide with C-terminal leucine]”: the “contraction reaction of larvae (in words)” value in experiment [1] is reported as “no reaction at all”.

Turning to “AFLRWamide [modified AFLRFamide with amidated C-terminal tryptophan]”, the “necessary concentration to induce defense stance (full contraction)” value in experiment [1] (batch 1) and in experiment [1] (batch 2) was 20 µM in each case. The “concentration triggering full contraction / defence stance (minimum necessary concentration)” value in experiment [1] (cutoff 50 µmol l^−1) turned out to be 20 µmol/L. Further, in experiment [1] (relative to the corresponding Famide peptide), the “reduction of effectiveness on changing the amidated C-terminal phenylalanine to an amidated tryptophan” value is reported as “about 10 fold”.

For “DFLRLamide [modified DFLRFamide with C-terminal leucine]”, the “contraction reaction of larvae (in words)” value in experiment [1] is reported as “very weak contraction”. Besides, in experiment [2], the “luminescence response of FLRFamide receptor expressing CHO-K1 cells (in words)” value was “barely higher than the negative control”.

“FMRFamide [orthologue of AFLRFamide/DFLRFamide in P. dumerilii]”: the “concentration inducing a defence reaction” value in experiment [3] is recorded as “above 50 µmol l^−1”.

As to “YMRFamide [orthologue of AFLRFamide/DFLRFamide]”, the “necessary concentration to induce defense stance (full contraction)” value amounted to 10 µM in experiment [1] (batch 1) and 15 µM in experiment [1] (batch 2). Moreover, the “concentration inducing a defence reaction” value in experiment [4] is listed as “above 50 µmol l^−1”.
